From patent US20210330611A1, “THERAPY FOR NEUROLOGICAL DISEASES/DISORDERS” (priority 2020, published 2021)
Structures can show the parent of a compound that is named as a salt. Where two headings read alike, the source gives them in different places.

How the values were obtained:
primary rat microglia [1] = system: primary rat microglia
[2] = system: LPS-induced microglia activation; test: Image-based assay of LPS-induced microglia activation (HTS and dose response); assay type: cell-based, rat; details: for inhibition at 10 µM: Rattus norvegicus, Microglia, read-out: LPS % inhibition
[3] = system: fibrin-induced microglia activation; test: Image-based assay of fibrin-induced microglia activation (HTS and dose response); assay type: cell-based, rat; details: primary microglia HTS, fibrin stimulation; for inhibition at 10 µM: Rattus norvegicus, Microglia, read-out: Fibrin % inhibition
primary rat microglia [4] = test: Cell toxicity (dead cells, size <150 μm2) in coated fibrin (cFib) assay; details: primary microglia HTS;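 also: share of dead cells sized under 150 µm2 at 10 µM in fibrin-stimulated microglia HTS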
[5] = system: fibrin- and LPS-induced microglia activation; test: cells; assay type: cell-based, rat
[6] = cell size >800 μm2 as marker of activation
[7] = fibrin stimulation, cell size <150 μm2 as marker of toxicity
[8] = classification by fibrin and LPS inhibition in HTS

Row | SMILES | LPS % cell toxicity (primary rat microglia [1]; rat) | inhibition at 10 µM ([2]; 48 h) | inhibition at 10 µM [3, 6] | Fibrin % cell toxicity (primary rat microglia [4]; [7]) | Quadrant (FIG. 5b) [5, 8] | LPS % inhibition [2] | Fibrin % inhibition [3, 6] | LPS % cell toxicity (primary rat microglia [1]) | inhibition at 10 µM ([2]; primary microglia HTS, LPS stimulation, compounds at 10 μM) | inhibition at 10 µM ([3]; compounds at 10 μM) | Fibrin % cell toxicity (primary rat microglia [4]; fibrin assay, dead cells (size <150 μm2)) | Quadrant (FIG. 5b) ([5]; quadrant by fibrin and LPS inhibition, HTS at 10 μM)
1 | COc1ccc(C2CNC(=O)C2)cc1OC1CCCC1 (stereo not drawn) [Rolipram] | 0% | 11% | 11% | 0% | Q4 |  |  |  |  |  |  | 
2 | CN(C)[C@@H]1C(O)=C(C(=O)NCN2CCCC2)C(=O)[C@@]2(O)C(O)=C3C(=O)c4c(O)cccc4[C@@](C)(O)[C@H]3C[C@@H]12 [Rolitetracycline] | 0% | 9% | 4% | 1% | Q4 |  |  |  |  |  |  | 
3 | Cn1c([N+](=O)[O-])cnc1COC(N)=O [Ronidazole] | 0% | 20% | 31% | 1% | Q4 |  |  |  |  |  |  | 
4 | O=[N+]([O-])c1cc([As](=O)(O)O)ccc1O [Roxarsone] | 1% |  |  | 1% | Q4 | 17% | −18% |  |  |  |  | 
5 | CC(=O)OCC(=O)NCCCOc1cccc(CN2CCCCC2)c1 [Roxatidine acetate] | 0% | 6% | 22% | 1% | Q4 |  |  |  |  |  |  | 
6 | CC[C@H]1OC(=O)[C@H](C)[C@@H](O[C@H]2C[C@@](C)(OC)[C@@H](O)[C@H](C)O2)[C@H](C)[C@@H](O[C@@H]2O[C@H](C)C[C@H](N(C)C)[C@H]2O)[C@](C)(O)C[C@@H](C)/C(=N\OCOCCOC)[C@H](C)[C@@H](O)[C@]1(C)O [Roxithromycin] | 1% | 17% | -4% | 0% | Q4 |  |  |  |  |  |  | 
7 | CN1CCN(c2c(F)cc3c(=O)c(C(=O)O)cn4c3c2SCC4)CC1 [Rufloxacin Hydrochloride] | 0% | 21% | -3% | 1% | Q4 |  |  |  |  |  |  | 
8 | C[C@@H]1O[C@@H](OC[C@H]2O[C@@H](Oc3c(-c4ccc(O)c(O)c4)oc4cc(O)cc(O)c4c3=O)[C@H](O)[C@@H](O)[C@@H]2O)[C@H](O)[C@H](O)[C@H]1O [Rutin] | 0% | 18% | 1% | 1% | Q4 |  |  |  |  |  |  | 
9 | C[C@@](Cc1ccc(O)c(O)c1)(NN)C(=O)O [S-(−)-carbidopa, Carbidopa] |  |  |  | 0% | Q4 | 16% | −91% | 0% |  |  |  | 
10 | OCc1ccccc1O [Salicyl Alcohol] | 0% | 19% | -5% | 1% | Q4 |  |  |  |  |  |  | 
11 | O=C(Nc1ccccc1)c1ccccc1O [Salicylanilide] | 0% | 13% | 1% | 1% | Q4 |  |  |  |  |  |  | 
12 | O=C(Oc1ccccc1C(=O)O)c1ccccc1O [Salsalate] | 1% | 14% | -22% | 1% | Q4 |  |  |  |  |  |  | 
13 | O=C(O)c1cn(-c2ccc(F)cc2)c2cc(N3CCNCC3)c(F)cc2c1=O [Sarafloxacin] | 0% | 4% | 2% | 0% | Q4 |  |  |  |  |  |  | 
14 | N#C[C@@H]1C[C@@H]2C[C@@H]2N1C(=O)[C@@H](N)C12CC3CC(CC(O)(C3)C1)C2 [Saxagliptin] | 0% | 38% | 34% | 1% | Q4 |  |  |  |  |  |  | 
15 | Cc1ncc([N+](=O)[O-])n1CC(C)O (stereo not drawn) [Secnidazole] | 2% | 22% | -24% | 1% | Q4 |  |  |  |  |  |  | 
16 | C[Se]CC[C@H](N)C(=O)O [Selenomethionine] | 0% | 10% | -5% | 1% | Q4 |  |  |  |  |  |  | 
17 | O=C(O)c1cc(O)c2c(c1)[C@H]([C@H]1c3cc(C(=O)O)cc(O)c3C(=O)c3c(O[C@@H]4O[C@H](CO)[C@@H](O)[C@H](O)[C@H]4O)cccc31)c1cccc(O[C@@H]3O[C@H](CO)[C@@H](O)[C@H](O)[C@H]3O)c1C2=O [Sennoside A] |  |  |  | 1% | Q4 | 14% | −10% | 0% |  |  |  | 
18 | CC1=C(C)C(=O)C(C(CCCCCC(=O)O)c2ccccc2)=C(C)C1=O (stereo not drawn) [Seratrodast] | 0% | 14% | 20% | 1% | Q4 |  |  |  |  |  |  | 
19 | Clc1ccc(C(Cn2ccnc2)OCc2csc3c(Cl)cccc23)c(Cl)c1 (stereo not drawn) [Sertaconazole] | 0% | 11% | -25% | 1% | Q4 |  |  |  |  |  |  | 
20 | FCOC(C(F)(F)F)C(F)(F)F [Sevoflurane] | 1% | 17% | -1% | 1% | Q4 |  |  |  |  |  |  | 
21 | CN[C@@H]1[C@@H](O)[C@@H](O[C@@H]2[C@@H](O)[C@H](O[C@H]3OC(CN)=CC[C@H]3N)[C@@H](N)C[C@H]2N)OC[C@]1(C)O [Sisomicin Sulfate] | 0% | 10% | -41% | 0% | Q4 |  |  |  |  |  |  | 
22 | N[C@@H](CC(=O)N1CCn2c(nnc2C(F)(F)F)C1)Cc1cc(F)c(F)cc1F [Sitagliptin] | 0% | 4% | -16% | 0% | Q4 |  |  |  |  |  |  | 
23 | O=C(O)CCCO [Sodium Oxybate] | 0% | 34% | -5% | 1% | Q4 |  |  |  |  |  |  | 
24 | CCCCCCCCCCCCCCOS(=O)(=O)[O-].[Na+] [Sodium Tetradecyl Sulfate] | 0% | 13% | -5% | 1% | Q4 |  |  |  |  |  |  | 
25 | CC(=O)N[C@@H](CC(=O)N[C@@H](CCC(=O)O)C(=O)O)C(=O)O [Spaglumic Acid] | 0% | 15% | -15% | 1% | Q4 |  |  |  |  |  |  | 
26 | CN[C@@H]1[C@H](O)[C@H](NC)[C@H]2O[C@@]3(O)C(=O)C[C@@H](C)O[C@H]3O[C@@H]2[C@H]1O [Spectinomycin] | 0% | 19% | 14% | 0% | Q4 |  |  |  |  |  |  | 
27 | CCCCCCCCNC(C)C(O)c1ccc(SC(C)C)cc1 (stereo not drawn) [Suloctidil] | 0% |  |  |  |  |  |  |  | 3% | 112% | 90% | Q3
